In US20240024273A1, “TOPICAL ADMINISTRATION OF 2-(DIETHYLAMINO)ETHYL 2-(4-ISOBUTYLPHENYL)PROPRIONATE FOR TREATMENT OF DISEASES” (TECHFIELDS PHARMA CO., LTD., priority 2020, published 2024):

System: Subjects with Osteoarthritis of the Knee
Assay: Second Phase 2 study: safety (treatment-emergent adverse events)
Type: in vivo, human
Conditions: BID
From the text: Safety assessments will be performed at each visit and will include assessment of AEs, vital signs (blood pressure, pulse rate, and oral temperature), clinical laboratories, physical examination, skin irritation, and electrocardiograms (ECGs) as indicated in the study flow chart, Table 47.
Safety assessments will include AEs, vital signs (blood pressures, pulse rate, and oral temperature), clinical laboratories, physical examination, skin irritation, and ECGs at various time points during the study as indicated in the study flow chart.
Adverse events of interest include: local skin reactions around the treated knee(s), upper stomach pain, GI bleeding, serious cardiovascular side effects (e.g., thrombotic events, myocardial infarction, or stroke), jaundice, elevated liver function tests, and nausea.
Safety analyses will be conducted on the SAS. Safety parameters will be listed and summarized using standard descriptive statistics, as appropriate. No formal statistical analyses are planned.

[1] = moderate adverse events, 4.375 mg/knee, N = 71
[2] = moderate adverse events, 8.75 mg/knee, N = 70
[3] = possibly, probably, or definitely related to study drug, 4.375 mg/knee, N = 71
[4] = possibly, probably, or definitely related to study drug, 8.75 mg/knee, N = 70
[5] = possibly, probably, or definitely related to study drug, 17.5 mg/knee, N = 70

CCN(CC)CCOC(=O)C(C)c1ccc(CC(C)C)cc1 (stereo not shown) [2-(diethylamino)ethyl 2-(4-isobutylphenyl)propionate]
Gastroenteritis: subjects with adverse events [1]: 1 | Gastroesophageal reflux disease: number of adverse events [1]: 1 | Gastroesophageal reflux disease: percentage of subjects with adverse events [1]: 1.4% | Gastroesophageal reflux disease: subjects with adverse events [1]: 1 | Total Adverse Events: number of adverse events [1]: 3 | Total Adverse Events: percentage of subjects with adverse events [1]: 4.2% | Total Adverse Events: subjects with adverse events [1]: 3 | Upper Respiratory Tract Infection: number of adverse events [1]: 1 | Upper Respiratory Tract Infection: percentage of subjects with adverse events [1]: 1.4% | Upper Respiratory Tract Infection: subjects with adverse events [1]: 1 | Total Adverse Events: number of adverse events [2]: 4 | Total Adverse Events: percentage of subjects with adverse events [2]: 5.7% | Total Adverse Events: subjects with adverse events [2]: 4 | Upper Respiratory Tract Infection: number of adverse events [2]: 4 | Upper Respiratory Tract Infection: percentage of subjects with adverse events [2]: 1.4% | Upper Respiratory Tract Infection: subjects with adverse events [2]: 4 | Abdominal Pain Upper: number of adverse events [3]: 1 | Abdominal Pain Upper: percentage of subjects with adverse events [3]: 1.4% | Abdominal Pain Upper: subjects with adverse events [3]: 1 | Administration Site Conditions: number of adverse events [3]: 1 | Administration Site Conditions: percentage of subjects with adverse events [3]: 1.4% | Administration Site Conditions: subjects with adverse events [3]: 1 | Alanine Aminotransferase Increased: number of adverse events [3]: 1 | Alanine Aminotransferase Increased: percentage of subjects with adverse events [3]: 1.4% | Alanine Aminotransferase Increased: subjects with adverse events [3]: 1 | Application Site Irritation: number of adverse events [3]: 1 | Application Site Irritation: percentage of subjects with adverse events [3]: 1.4% | Application Site Irritation: subjects with adverse events [3]: 1 | Aspartate Aminotransferase Increased: number of adverse events [3]: 3 | Aspartate Aminotransferase Increased: percentage of subjects with adverse events [3]: 4.2% | Aspartate Aminotransferase Increased: subjects with adverse events [3]: 3 | Gamma-Glutamyltransferase Increased: number of adverse events [3]: 2 | Gamma-Glutamyltransferase Increased: percentage of subjects with adverse events [3]: 2.8% | Gamma-Glutamyltransferase Increased: subjects with adverse events [3]: 2 | Headache: number of adverse events [3]: 1 | Headache: percentage of subjects with adverse events [3]: 1.4% | Headache: subjects with adverse events [3]: 1 | Hypertriglyceridemia: number of adverse events [3]: 6 | Hypertriglyceridemia: percentage of subjects with adverse events [3]: 7.0% | Hypertriglyceridemia: subjects with adverse events [3]: 5 | Positive Fecal Occult Blood Test: number of adverse events [3]: 6 | Positive Fecal Occult Blood Test: percentage of subjects with adverse events [3]: 7.0% | Positive Fecal Occult Blood Test: subjects with adverse events [3]: 5 | Throat Irritation: number of adverse events [3]: 2 | Throat Irritation: percentage of subjects with adverse events [3]: 2.8% | Throat Irritation: subjects with adverse events [3]: 2 | Total Adverse Events: number of adverse events [3]: 26 | Total Adverse Events: percentage of subjects with adverse events [3]: 33.8% | Total Adverse Events: subjects with adverse events [3]: 24 | White Blood Cell Count Decreased: number of adverse events [3]: 2 | White Blood Cell Count Decreased: percentage of subjects with adverse events [3]: 2.8% | White Blood Cell Count Decreased: subjects with adverse events [3]: 2 | Abdominal Discomfort: number of adverse events [4]: 4 | Abdominal Discomfort: percentage of subjects with adverse events [4]: 4.3% | Abdominal Discomfort: subjects with adverse events [4]: 3 | Abdominal Pain Upper: number of adverse events [4]: 1 | Abdominal Pain Upper: percentage of subjects with adverse events [4]: 1.4% | Abdominal Pain Upper: subjects with adverse events [4]: 1 | Administration Site Conditions: number of adverse events [4]: 1 | Administration Site Conditions: percentage of subjects with adverse events [4]: 1.4% | Administration Site Conditions: subjects with adverse events [4]: 1 | Alanine Aminotransferase Increased: number of adverse events [4]: 1 | Alanine Aminotransferase Increased: percentage of subjects with adverse events [4]: 1.4% | Alanine Aminotransferase Increased: subjects with adverse events [4]: 1 | Application Site Irritation: number of adverse events [4]: 1 | Application Site Irritation: percentage of subjects with adverse events [4]: 1.4% | Application Site Irritation: subjects with adverse events [4]: 1 | Diarrhoea: number of adverse events [4]: 2 | Diarrhoea: percentage of subjects with adverse events [4]: 2.9% | Diarrhoea: subjects with adverse events [4]: 2 | Dizziness: number of adverse events [4]: 2 | Dizziness: percentage of subjects with adverse events [4]: 2.9% | Dizziness: subjects with adverse events [4]: 2 | Headache: number of adverse events [4]: 6 | Headache: percentage of subjects with adverse events [4]: 5.7% | Headache: subjects with adverse events [4]: 4 | Hypertriglyceridemia: number of adverse events [4]: 3 | Hypertriglyceridemia: percentage of subjects with adverse events [4]: 4.3% | Hypertriglyceridemia: subjects with adverse events [4]: 3 | Positive Fecal Occult Blood Test: number of adverse events [4]: 6 | Positive Fecal Occult Blood Test: percentage of subjects with adverse events [4]: 7.1% | Positive Fecal Occult Blood Test: subjects with adverse events [4]: 5 | Throat Irritation: number of adverse events [4]: 1 | Throat Irritation: percentage of subjects with adverse events [4]: 1.4% | Throat Irritation: subjects with adverse events [4]: 1 | Total Adverse Events: number of adverse events [4]: 34 | Total Adverse Events: percentage of subjects with adverse events [4]: 41.4% | Total Adverse Events: subjects with adverse events [4]: 29 | White Blood Cell Count Decreased: number of adverse events [4]: 2 | White Blood Cell Count Decreased: percentage of subjects with adverse events [4]: 2.9% | White Blood Cell Count Decreased: subjects with adverse events [4]: 2 | Abdominal Discomfort: number of adverse events [5]: 1 | Abdominal Discomfort: percentage of subjects with adverse events [5]: 1.4% | Abdominal Discomfort: subjects with adverse events [5]: 1 | Abdominal Pain Upper: number of adverse events [5]: 2 | Abdominal Pain Upper: percentage of subjects with adverse events [5]: 1.4% | Abdominal Pain Upper: subjects with adverse events [5]: 1 | Administration Site Conditions: number of adverse events [5]: 4 | Administration Site Conditions: percentage of subjects with adverse events [5]: 5.7% | Administration Site Conditions: subjects with adverse events [5]: 4 | Application Site Irritation: number of adverse events [5]: 1 | Application Site Irritation: percentage of subjects with adverse events [5]: 1.4% | Application Site Irritation: subjects with adverse events [5]: 1 | Application Site Rash: number of adverse events [5]: 3 | Application Site Rash: percentage of subjects with adverse events [5]: 4.3% | Application Site Rash: subjects with adverse events [5]: 3 | Aspartate Aminotransferase Increased: number of adverse events [5]: 1 | Aspartate Aminotransferase Increased: percentage of subjects with adverse events [5]: 1.4% | Aspartate Aminotransferase Increased: subjects with adverse events [5]: 1 | Dizziness: number of adverse events [5]: 1 | Dizziness: percentage of subjects with adverse events [5]: 1.4% | Dizziness: subjects with adverse events [5]: 1 | Headache: number of adverse events [5]: 1 | Headache: percentage of subjects with adverse events [5]: 1.4% | Headache: subjects with adverse events [5]: 1 | Hypertriglyceridemia: number of adverse events [5]: 6 | Hypertriglyceridemia: percentage of subjects with adverse events [5]: 8.6% | Hypertriglyceridemia: subjects with adverse events [5]: 6 | Positive Fecal Occult Blood Test: number of adverse events [5]: 5 | Positive Fecal Occult Blood Test: percentage of subjects with adverse events [5]: 7.1% | Positive Fecal Occult Blood Test: subjects with adverse events [5]: 5 | Total Adverse Events: number of adverse events [5]: 25 | Total Adverse Events: percentage of subjects with adverse events [5]: 35.7% | Total Adverse Events: subjects with adverse events [5]: 25
